Among the test systems are A498 renal; COLO 205 colon; HOP-92 NSCLC; M14 melanoma; OVCAR-5 ovarian; SK-MEL-28 melanoma; SK-MEL-5 melanoma; SNB-19 CNS; U251 CNS.
What all share (assay): growth of human tumour cells (NCI), 48 h

This note sets out measurements from PubChem BioAssay (NCI).

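48-hour exposure; five concentrations; linearly interpolated endpoints. GI50: concentration for 50% inhibition of growth. Definition used: TGI = concentration required for complete inhibition of growth.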 Some results are limits rather than exact numbers.

In the case of `CCCN1CCN(c2ccc3nc(-c4ccc5nc(-c6ccc(OCC)c(OCC)c6)[nH]c5c4)[nH]c3c2)CC1`, the GI50 is 0.538 µM in the test with A498 renal; 0.164 µM with COLO 205 colon; 1 µM with HOP-92 NSCLC; 0.195 µM in the test with M14 melanoma; 1.67 µM in the test with OVCAR-5 ovarian; 0.755 µM in the test on SK-MEL-28 melanoma. For the same compound, the GI50 in the test on SK-MEL-5 melanoma was 0.424 µM; in the test with SNB-19 CNS, 0.616 µM; in the test with U251 CNS, 0.398 µM. Moreover, the TGI in the test with A498 renal was 1.82 µM; in the test with COLO 205 colon it was 1.4 µM; in the test with HOP-92 NSCLC, 5.5 µM; with M14 melanoma it was 1.39 µM; in the test with OVCAR-5 ovarian, 4.32 µM; in the test with SK-MEL-28 melanoma, 2.19 µM. The TGI came to 1.77 µM with SK-MEL-5 melanoma, 1.98 µM in the test with SNB-19 CNS and 1.55 µM in the test with U251 CNS.
Take `CCC/C(=N\NC(=O)c1cc2ccccc2cc1O)C(CC)C(=O)CCC(=O)N(Cc1ccccc1)Cc1ccccc1` (configuration not stated): the TGI in the test with A498 renal is more than 100 µM; with COLO 205 colon, 69.5 µM; in the test on HOP-92 NSCLC it was more than 100 µM; with M14 melanoma, more than 100 µM; with OVCAR-5 ovarian, more than 100 µM; in the test on SK-MEL-28 melanoma, more than 100 µM. In addition, the figures for the TGI with SK-MEL-5 melanoma, in the test on SNB-19 CNS and with U251 CNS were 60.9 µM, more than 100 µM and more than 100 µM, respectively.
On to `Cc1cccc(NC(=O)CC#N)c1Cl`, for which the TGI in the test on HOP-92 NSCLC, in the test with M14 melanoma, in the test with SK-MEL-28 melanoma, in the test with SNB-19 CNS and with U251 CNS was more than 100 µM in each case.
For the compound `CC(=O)OCC1OC(Sc2ccccn2)C=CC1OC(C)=O` (configuration not stated), the TGI in the test with A498 renal, in the test on COLO 205 colon, with HOP-92 NSCLC, in the test with M14 melanoma, in the test on OVCAR-5 ovarian and with SK-MEL-28 melanoma was more than 100 µM each time. In addition, the TGI with SK-MEL-5 melanoma, in the test on SNB-19 CNS and in the test with U251 CNS was more than 100 µM in each case.
With `N#CC1=C(c2ccccc2)C(O)(c2ccccc2)NC1=O` (configuration not stated), the TGI in the test with A498 renal was 60.6 µM; in the test on COLO 205 colon, more than 100 µM; with HOP-92 NSCLC, 75.2 µM; in the test on M14 melanoma, more than 100 µM; with OVCAR-5 ovarian, 90.1 µM; with SK-MEL-28 melanoma it was more than 100 µM. The TGI in the test with SK-MEL-5 melanoma and in the test on U251 CNS was more than 100 µM each time.
For the compound `BrC12c3ccccc3Sc3ccccc3C1(Br)c1ccccc12` (configuration not stated), the TGI in the test on A498 renal stood at 70.7 µM; in the test with COLO 205 colon, 76.3 µM; in the test with HOP-92 NSCLC, 60.5 µM; in the test on M14 melanoma, 28.8 µM; with OVCAR-5 ovarian, 86.2 µM; in the test on SK-MEL-5 melanoma it was 30.8 µM. For the same compound, the results for the TGI in the test with SNB-19 CNS and in the test with U251 CNS were more than 100 µM and 33.7 µM, respectively.
With `O=c1/c(=C/c2ccc3c(c2)OCO3)sc2nnc(-c3ccco3)n12`, the TGI in the test on A498 renal, in the test on COLO 205 colon, in the test with M14 melanoma, in the test with OVCAR-5 ovarian, with SK-MEL-28 melanoma and in the test on SK-MEL-5 melanoma was more than 100 µM throughout. Moreover, the TGI in the test with SNB-19 CNS and in the test on U251 CNS was more than 100 µM each time.
In the case of `COc1ccc(/C(C)=N/NC(N)=S)c(OC)c1`, the TGI in the test with A498 renal, with COLO 205 colon, in the test on HOP-92 NSCLC, in the test with M14 melanoma, with OVCAR-5 ovarian and with SK-MEL-28 melanoma was more than 100 µM throughout. Moreover, the TGI in the test on SK-MEL-5 melanoma, in the test with SNB-19 CNS and in the test with U251 CNS was more than 100 µM throughout.
As to `CC(Oc1ccc2cc(C(=O)c3ccccc3)c(=O)oc2c1)C(=O)O` (configuration not stated), the TGI in the test with A498 renal, with COLO 205 colon, in the test on HOP-92 NSCLC, with M14 melanoma, in the test on SK-MEL-28 melanoma and in the test with SK-MEL-5 melanoma was more than 100 µM each time. Further, the TGI in the test with SNB-19 CNS and in the test with U251 CNS was more than 100 µM in each case.
For `COc1ccc(C(=O)O)c(Cc2ccc3ccccc3c2)c1`, the TGI with A498 renal, with COLO 205 colon, in the test with HOP-92 NSCLC, in the test on M14 melanoma, in the test on OVCAR-5 ovarian and with SK-MEL-28 melanoma was more than 100 µM each time. The TGI in the test on SK-MEL-5 melanoma, in the test with SNB-19 CNS and in the test on U251 CNS was more than 100 µM in each case.
As for `CC1=C(C(=O)Nc2ccccc2C)C(c2ccc(C3C(C(=O)Nc4ccccc4C)=CNC=C3C(=O)Nc3ccccc3C)cc2)C(C(=O)Nc2ccccc2C)=C(C)N1`, the TGI in the test with A498 renal worked out at 41.7 µM; with COLO 205 colon it was 50.1 µM; with HOP-92 NSCLC it was 46.4 µM; in the test on M14 melanoma, 33 µM; in the test with OVCAR-5 ovarian it was 44.4 µM; with SK-MEL-28 melanoma, 36.3 µM. In addition, the TGI with SK-MEL-5 melanoma is 17.8 µM; with SNB-19 CNS it was 49.1 µM; in the test on U251 CNS, 24.7 µM.
For the compound `c1ccc(C2N3CCCCC3[C@@H]3c4[nH]c5ccccc5c4CCN23)cc1` (some centres not stated), the TGI in the test with A498 renal is 63.6 µM; with COLO 205 colon, 48.2 µM; in the test on HOP-92 NSCLC it was more than 100 µM; in the test with M14 melanoma, more than 100 µM; in the test with OVCAR-5 ovarian it was more than 100 µM; with SK-MEL-28 melanoma it was 70.2 µM. For the same compound, the TGI in the test on SK-MEL-5 melanoma, in the test on SNB-19 CNS and in the test on U251 CNS was more than 100 µM in each case.
As for `O=CC1(C2(C=O)c3ccccc3-c3ccccc32)c2ccccc2-c2ccccc21`, the GI50 was 2.33 µM in the test on A498 renal; 1.58 µM in the test on HOP-92 NSCLC; 3.21 µM with OVCAR-5 ovarian; 1.72 µM in the test on SK-MEL-28 melanoma; 1.95 µM in the test on SK-MEL-5 melanoma; 2.23 µM with U251 CNS. Further, the TGI was 5.36 µM with A498 renal; 3.83 µM in the test on HOP-92 NSCLC; 6.34 µM in the test on OVCAR-5 ovarian; 3.38 µM in the test with SK-MEL-28 melanoma; 4.02 µM in the test on SK-MEL-5 melanoma; 5.6 µM in the test on U251 CNS.
On to `Oc1cc2ccccc2cc1-c1n[nH]c(=S)n1-c1ccc(Cl)cc1`, for which the GI50 with COLO 205 colon was 41.7 µM; in the test on HOP-92 NSCLC, 46 µM; with M14 melanoma it was 15.1 µM; in the test with OVCAR-5 ovarian, 27.6 µM; in the test on SK-MEL-28 melanoma it was 36.4 µM; in the test with SK-MEL-5 melanoma, 14.4 µM. Further, the GI50 in the test on SNB-19 CNS is 25.4 µM; in the test on U251 CNS, 13 µM. Further, the TGI is more than 100 µM with COLO 205 colon; more than 100 µM in the test with HOP-92 NSCLC; more than 100 µM in the test with M14 melanoma; 95.6 µM with OVCAR-5 ovarian; more than 100 µM in the test on SK-MEL-28 melanoma; 38.2 µM with SK-MEL-5 melanoma. Moreover, the TGI in the test with SNB-19 CNS is more than 100 µM; in the test on U251 CNS, 90.9 µM.
